Molecules are shown by their SMILES.

Chain of GLP-1R (P43220 24-463): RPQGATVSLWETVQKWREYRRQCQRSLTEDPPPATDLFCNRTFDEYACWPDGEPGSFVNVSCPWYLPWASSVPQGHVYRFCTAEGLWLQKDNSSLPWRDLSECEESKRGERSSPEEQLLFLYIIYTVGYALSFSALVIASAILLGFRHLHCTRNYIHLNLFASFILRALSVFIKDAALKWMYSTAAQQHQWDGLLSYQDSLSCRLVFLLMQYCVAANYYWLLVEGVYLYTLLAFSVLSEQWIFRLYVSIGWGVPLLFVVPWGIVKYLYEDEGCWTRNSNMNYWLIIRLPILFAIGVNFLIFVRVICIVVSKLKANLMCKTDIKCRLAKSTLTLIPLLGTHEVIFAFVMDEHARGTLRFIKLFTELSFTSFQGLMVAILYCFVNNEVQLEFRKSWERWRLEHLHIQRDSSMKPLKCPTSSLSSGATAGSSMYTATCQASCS

The target of this test is GLP-1R (Homo sapiens, UniProt P43220). In words: GLP-1R Activation - cAMP Assay. The test is classed as cell-based. The settings on record: cAMP increase in CHO cells stably expressing GLP-1R; each compound run on one of the two cAMP assays (Assay 1 or Assay 2, not specified). On the procedure:
GLP-1R Activation—cAMP Assay 1
GLP-1R activation by compounds of the present disclosure were quantified by measuring cAMP increase in CHO cells stably expressing GLP-1R (MultiSpan product #C1267-1a). The cells were harvested and plated in growth medium (DMEM/F-12 (Corning product #10-090-CV) supplemented with 10% FBS (HyClone product #SH30071-03), penicillin/streptomycin (Corning product #30-002CI) and 10 μg/ml puromycin (Gibco product #A11138-03)) at 1,000 cells/well in a 384-well plate (Greiner product #781080). The cells were then incubated overnight at 37° C., 5% CO2. The next day, the medium was removed and the cells were washed with DPBS (Corning product #21-031-CM) before adding the assay medium (HBSS, Corning product #21-023-CV) with 20 mM Hepes (Gibco product #15630-080) and 0.1% BSA (Rockland Immunochemicals product #BSA-1000)). Following the medium change, the cells were incubated for 1 hour at 37° C., 5% CO2. The tested GLP-1 compound was added to the cells in a 10-point dose response followed by a 30 minutes incubation at 37° C., 5% CO2. cAMP concentration increase was then detected using Cisbio's cAMP Gs Dynamic Kit (product #62AM4PEC) according to the manufacturer's protocol. The response was plotted against the log of the agonist concentration and fitted to a sigmoidal equation to determine the EC50.
`CO[C@H]1COCC1n1c(Cc2cc(F)c(-c3cccc(OCc4ccc(C#N)cc4F)n3)cc2F)nc2c(F)cc(C(=O)O)cc21` (single isomer, unassigned) [Example 238] registered an EC50 of 0.1 nM. In other words, the sub-nanomolar range.
For the molecule `CO[C@@H]1COCC1n1c(Cc2cc(F)c(-c3cccc(OCc4ccc(C#N)cc4F)n3)cc2F)nc2c(F)cc(C(=O)O)cc21` (single isomer, unassigned) [Example 239], the EC50 worked out at 0.04 nM.
As for `N#Cc1ccc(COc2cccc(-c3cc(F)c(Cc4nc5ccc(C(=O)O)cc5n4[C@H]4COCC45CC5)cc3F)n2)c(F)c1` (single isomer, unassigned) [Example 259], the EC50 worked out at 0.578 nM.
Regarding `N#Cc1ccc(COc2cccc(-c3cc(F)c(Cc4nc5ccc(C(=O)O)cc5n4[C@@H]4COCC45CC5)cc3F)n2)c(F)c1` (single isomer, unassigned) [Example 260], a half-maximal response (EC50) required 0.411 nM.
The result for `N#Cc1ccc(COc2cccc(-c3cc(F)c(Cc4nc5ccc(C(=O)O)cc5n4[C@@H]4COC[C@H]4C(F)F)cc3F)n2)c(F)c1` (single isomer, unassigned) [Example 261] reads 4.08 nM; that for `N#Cc1ccc(COc2cccc(-c3cc(F)c(Cc4nc5ccc(C(=O)O)cc5n4[C@H]4COC[C@@H]4C(F)F)cc3F)n2)c(F)c1` (single isomer, unassigned) [Example 262], 1.07 nM; that for `CO[C@@H]1COC[C@@H]1n1c(Cc2cc(F)c(-c3cccc(OCc4ccc(C#N)cc4F)n3)cc2F)nc2ccc(C(=O)O)cc21` (single isomer, unassigned) [Example 275], 0.168 nM.
`CO[C@H]1COC[C@H]1n1c(Cc2cc(F)c(-c3cccc(OCc4ccc(C#N)cc4F)n3)cc2F)nc2ccc(C(=O)O)cc21` (single isomer, unassigned) [Example 276] showed an EC50 of 0.108 nM.
Take `CC1(C)COC[C@H]1n1c(Cc2cc(F)c(-c3cccc(OCc4ncc(Cl)cc4F)n3)cc2F)nc2ccc(C(=O)O)cc21` (single isomer, unassigned) [Example 289A]: the EC50 came to 0.122 nM.
`CC1(C)COC[C@@H]1n1c(Cc2cc(F)c(-c3cccc(OCc4ncc(Cl)cc4F)n3)cc2F)nc2ccc(C(=O)O)cc21` (single isomer, unassigned) [Example 289B] returned an EC50 of 0.931 nM.
The molecule `COc1cc(Cl)ncc1COc1cccc(-c2cc(F)c(Cc3nc4ccc(C(=O)O)cc4n3[C@@H]3COCC3(C)C)cc2F)n1` (single isomer, unassigned) [Example 290A] returned an EC50 of 0.063 nM.
For the molecule `COc1cc(Cl)ncc1COc1cccc(-c2cc(F)c(Cc3nc4ccc(C(=O)O)cc4n3[C@H]3COCC3(C)C)cc2F)n1` (single isomer, unassigned) [Example 290B], the midpoint of the response, the EC50, lay at 0.764 nM.
The result for `CO[C@@]1(C)COC[C@H]1n1c(Cc2cc(F)c(-c3cccc(OCc4ccc(C#N)cc4F)n3)cc2F)nc2ccc(C(=O)O)cc21` (single isomer, unassigned) [Example 311A] reads 0.064 nM; that for `CO[C@]1(C)COC[C@@H]1n1c(Cc2cc(F)c(-c3cccc(OCc4ccc(C#N)cc4F)n3)cc2F)nc2ccc(C(=O)O)cc21` (single isomer, unassigned) [Example 311B, 2-[[4-[6-[(4-cyano-2-fluoro-phenyl)methoxy]-2-pyridyl]-2,5-difluoro-phenyl]methyl]-3-[4-methoxy-4-methyl-tetrahydrofuran-3-yl]benzimidazole-5-carboxylic Acid], 0.159 nM.
For `CO[C@]1(C)COC[C@H]1n1c(Cc2cc(F)c(-c3cccc(OCc4ccc(C#N)cc4F)n3)cc2F)nc2ccc(C(=O)O)cc21` (single isomer, unassigned) [Example 312] the value was 0.397 nM; for `CO[C@@]1(C)COC[C@@H]1n1c(Cc2cc(F)c(-c3cccc(OCc4ccc(C#N)cc4F)n3)cc2F)nc2ccc(C(=O)O)cc21` (single isomer, unassigned) [Example 313], 1.14 nM; for `CC1(C)COC[C@@H]1n1c(Cc2ccc(-c3cccc(OCc4ccc(C#N)cc4F)n3)cc2F)nc2ccc(C(=O)O)cc21` (single isomer, unassigned) [Example 379], 0.574 nM.
`CC1(C)COC[C@@H]1n1c(Cc2ccc(-c3cccc(OCc4ccc(C#N)cc4F)n3)cc2F)nc2ccc(C(=O)O)cc21` (single isomer, unassigned) [Example 380] yielded a concentration giving a half-maximal response (EC50) of 0.096 nM.
`CC1(C)COC[C@H]1n1c(Cc2cc(F)c(-c3cccc(OCc4ccc(C(F)F)cc4F)n3)cc2F)nc2ccc(C(=O)O)cc21` (single isomer, unassigned) [Example 383A] displayed an EC50 of 0.747 nM.
Take `CC1(C)COC[C@@H]1n1c(Cc2cc(F)c(-c3cccc(OCc4ccc(C(F)F)cc4F)n3)cc2F)nc2ccc(C(=O)O)cc21` (single isomer, unassigned) [Example 383B]: the EC50 was 0.971 nM.
Take `CC1(C)COC[C@H]1n1c(Cc2cc(F)c(-c3cccc(OCc4ccc(Cl)cc4)n3)cc2F)nc2ccc(C(=O)O)cc21` (single isomer, unassigned) [Example 385A]: the EC50 is 0.089 nM.
For `CC1(C)COC[C@@H]1n1c(Cc2cc(F)c(-c3cccc(OCc4ccc(Cl)cc4)n3)cc2F)nc2ccc(C(=O)O)cc21` (single isomer, unassigned) [Example 385B] the value was 1.12 nM.
Consider `CO[C@@H]1CCOC[C@@H]1n1c(Cc2cc(F)c(-c3cccc(OCc4ccc(C#N)cc4F)n3)cc2F)nc2ccc(C(=O)O)cc21` (single isomer, unassigned) [Example 408], for which it took 0.633 nM to reach a half-maximal effect (EC50).
For `CO[C@H]1CCOC[C@H]1n1c(Cc2cc(F)c(-c3cccc(OCc4ccc(C#N)cc4F)n3)cc2F)nc2ccc(C(=O)O)cc21` (single isomer, unassigned) [Example 409] the value was 0.291 nM.
The molecule `N#Cc1ccc(COc2cccc(-c3cc(F)c(Cc4nc5ccc(C(=O)O)cc5n4[C@@H]4COC[C@@H]4CO)cc3F)n2)c(F)c1` (single isomer, unassigned) [Example 435] gave an EC50 of 0.06 nM.
For the molecule `N#Cc1ccc(COc2cccc(-c3cc(F)c(Cc4nc5ccc(C(=O)O)cc5n4[C@H]4COC[C@H]4CO)cc3F)n2)c(F)c1` (single isomer, unassigned) [Example 436], the midpoint of the response, the EC50, lay at 0.993 nM.
Molecule `CO[C@]1(C)COC[C@@H]1n1c(Cc2cc(F)c(-c3cccc(OCc4ccc(Cl)cc4F)n3)cc2F)nc2ccc(C(=O)O)cc21` (single isomer, unassigned) [Example 473] had an EC50 of 0.092 nM.
On to `CO[C@@]1(C)COC[C@H]1n1c(Cc2cc(F)c(-c3cccc(OCc4ccc(Cl)cc4F)n3)cc2F)nc2ccc(C(=O)O)cc21` (single isomer, unassigned) [Example 474], for which the EC50 was determined as 0.181 nM.
`CC1(C)COC[C@H]1n1c(Cc2cc(F)c(-c3cccc(OCc4ccc(C(F)F)cc4F)n3)cc2F)nc2c(F)cc(C(=O)O)cc21` (single isomer, unassigned) [Example 502A] displayed an EC50 of 0.281 nM.
The molecule `CC1(C)COC[C@@H]1n1c(Cc2cc(F)c(-c3cccc(OCc4ccc(C(F)F)cc4F)n3)cc2F)nc2c(F)cc(C(=O)O)cc21` (single isomer, unassigned) [Example 502B] had an EC50 of 0.939 nM.
As to `COC[C@@]1(C)COCC1n1c(Cc2cc(F)c(-c3cccc(OCc4ccc(Cl)cc4F)n3)cc2F)nc2ccc(C(=O)O)cc21` (single isomer, unassigned) [Example 546], the EC50 came out at 0.706 nM.
Molecule `COC[C@@]1(C)COCC1n1c(Cc2cc(F)c(-c3cccc(OCc4ccc(Cl)cc4F)n3)cc2F)nc2ccc(C(=O)O)cc21` (single isomer, unassigned) [Example 547] displayed an EC50 of 0.024 nM.
Regarding `COC[C@]1(C)COCC1n1c(Cc2cc(F)c(-c3cccc(OCc4ccc(Cl)cc4F)n3)cc2F)nc2ccc(C(=O)O)cc21` (stereo in doubt) [Example 549, 2-(4-(6-((4-chloro-2-fluorobenzyl)oxy)pyridin-2-yl)-2,5-difluorobenzyl)-1-((3R,4S)-4-(methoxymethyl)-4-methyltetrahydrofuran-3-yl)-1H-benzo[d]imidazole-6-carboxylic acid], it took 0.727 nM to reach a half-maximal effect (EC50).
As for `O=C(O)c1ccc2nc(Cc3cc(F)c(-c4cccc(OCc5ccc(Cl)cc5F)n4)cc3F)n(C3COC4CC3C4)c2c1` (stereo in doubt) [Example 572, (R)-1-(2-oxabicyclo[3.1.1]heptan-4-yl)-2-(4-(6-((4-chloro-2-fluorobenzyl)oxy)pyridin-2-yl)-2,5-difluorobenzyl)-1H-benzo[d]imidazole-6-carboxylic acid], the EC50 worked out at 0.322 nM.
On to `O=C(O)c1ccc2nc(Cc3cc(F)c(-c4cccc(OCc5ccc(Cl)cc5F)n4)cc3F)n(C3COC4CC3C4)c2c1` (stereo in doubt) [Example 573, (S)-1-(2-oxabicyclo[3.1.1]heptan-4-yl)-2-(4-(6-((4-chloro-2-fluorobenzyl)oxy)pyridin-2-yl)-2,5-difluorobenzyl)-1H-benzo[d]imidazole-6-carboxylic acid], for which a half-maximal effect (EC50) was put at 0.188 nM.
As for `N#Cc1ccc(COc2cccc(-c3cc(F)c(Cc4nc5ccc(C(=O)O)cc5n4[C@H]4CCOC4)cc3F)n2)c(F)c1` [Example 1, (S)-2-(4-(6-((4-cyano-2-fluorobenzyl)oxy)pyridin-2-yl)-2,5-difluorobenzyl)-1-(tetrahydrofuran-3-yl)-1H-benzo[d]imidazole-6-carboxylic acid], the response was half-maximal at 1.12 nM (EC50).

Source of the values: patent US12570642B2, “GLP-IR modulating compounds” (Gilead Sciences, Inc., priority 2021, dated 2026).
